These results are taken from PMC3049593 (British Journal of Cancer, 2011).

The structures appear in SMILES notation.

For series [1], the system named is angiogenesis (endothelial cells, rat aortic ring). Details: method as in Dredge et al, 2010. The note with it: endothelial cell assays in vitro and ex vivo rat aortic ring assay; ref Dredge et al, 2010; cited from earlier work.
The nature of series [2]: body weight loss in tumour-bearing mice. In kind it is in vivo. Particulars: for body weight loss at the end of the study: MDA-MB-231 model.
In the next series the test system is MDA-MB-231 tumours. Kind of series: MDA-MB-231 breast xenograft model. In kind it is in vivo, nude mice. The method, then:
(§1) In the orthotopic Hep3b2.1-7 human liver cancer model, treatment of mice (n=10) began 14 days after inoculation of 2.5 × 10^6 cells. […] To initiate tumour xenografts, MDA-MB-231, PC3, Cal27 and HepG2 cells were injected s.c. into nude mice (n=8) at 4, 5, 2 and 2 × 10^7 cells ml^−1, respectively. […] In the B16F0 lung metastasis model, 2 × 10^5 cells were injected via the tail vein of C57Bl6 mice (n=8). […] Surface lung macrometastases were counted for each group (n=9) upon study termination. In the intrasplenic HT-29 xenograft model, 1 × 10^6 cells in 100 μl were injected into the spleen. […] Solid tumours were measured in two dimensions (length and width) and the tumour volume (cm^3) was calculated using the equation: V=length × width^2 × π/6. The anti-tumour activity was expressed as percent tumour growth inhibition (%TGI). Further details are available in Supplementary Methods. […]
antibody. […]
staining. For quantification, three independent visual fields (20x magnification) were chosen and positive stained spots or vessels with identifiable lumen were counted.
Angiogenesis inhibition and induction were calculated using the equations: […]
regimen both before and after tumour cell inoculation (days -6, -3, 0, +3, +6) or only after tumour cell inoculation (days 0, +3, +6). B16 cell (2x105) were inoculated via tail vein injections and mice were culled and assessed for lung metastases on day 12. […]

The test system of the next series is Hep3b2.1-7 tumours. Briefly: orthotopic Hep3b2.1-7 human liver cancer model. In kind it is in vivo, mice. The method, then: as §1
In the Hep3b2.1-7 model, the cells resuspended in HBSS:MatrigelTM (1:1, v/v) to a final concentration of 5 x 10^8 cells/mL were inoculated following an incision into the skin directly over the liver to expose the main lobe of the liver. The needle was introduced into the main lobe of the liver, where 2.5 x 106 Hep3b2.1-7 cells (in 5 µL with 50% Matrigel) were discharged. The treatment of mice began 24 days after inoculation of the […]
either a once or twice weekly dosing schedule (see figure legends for dose schedules in each study) for up to three weeks. […]
efficacy/PK study) using either a once or twice weekly dosing schedule (see figure legends for dose schedules in each study) for up to three weeks. […]
In relevant models, solid tumours were measured in two dimensions (length and width) and the tumour volume (mm3) calculated using the equation V = length × width2 × π/6.The anti-tumour activity was assessed by the comparison of the mean tumour volume of the treated groups to the mean tumour volume of the control group and expressed as the percent Tumour Growth Inhibition (TGI) using the equation:
%TGI = (1-((VendPG545 - VstartPG545) / (VendControl - VstartControl)))*100 VendPG545 = Ending Tumour Volume of PG545-treated animal
VstartPG545 = Starting Tumour Volume of PG545-treated animal
VendControl = Ending Tumour Volume of Control animal
VstartControl = Starting Tumour Volume of Control animal […]
After collection, 0.2 mL of […]
whole blood was added to a glass scintillation vial to which 1 mL Solvable was added.
Samples were incubated for one hour at 55-60°C. 0.1 mL of 0.1 M EDTA-di-sodium salt solution and 0.3 mL to 0.5 mL of 30% hydrogen peroxide in 0.1 mL aliquots were added to the sample. Samples were gently agitated between additions to allow reaction foaming to subside. Samples were incubated for 30 minutes at room temperature. […]

By TGI is commonly meant how far tumour growth fell short of that in controls. Consider `CC(C)CCC[C@@H](C)[C@H]1CCC2C3CCC4C[C@@H](O[C@@H]5O[C@H](COS(=O)(=O)[O-])[C@@H](O[C@H]6O[C@H](COS(=O)(=O)[O-])[C@@H](O[C@H]7O[C@H](COS(=O)(=O)[O-])[C@@H](O[C@H]8O[C@H](COS(=O)(=O)[O-])[C@@H](OS(=O)(=O)[O-])[C@H](OS(=O)(=O)[O-])[C@H]8OS(=O)(=O)[O-])[C@H](OS(=O)(=O)[O-])[C@H]7OS(=O)(=O)[O-])[C@H](OS(=O)(=O)[O-])[C@H]6OS(=O)(=O)[O-])[C@H](OS(=O)(=O)[O-])[C@H]5OS(=O)(=O)[O-])CC[C@]4(C)C3CC[C@@]21C.[Na+].[Na+].[Na+].[Na+].[Na+].[Na+].[Na+].[Na+].[Na+].[Na+].[Na+].[Na+].[Na+]` (some centres unmarked) [PG545], for which the angiogenesis inhibitor potency in series [1] was not above 1000 nM. The results for the “body weight loss nadir” value in series [2] (B16 model) and in series [2] (HT-29 model) were 8% and 12%, respectively. The body weight loss is 4% in series [2] (Hep3b2.1-7 model, 20 mg kg^−1 followed by twice-weekly 10 mg kg^−1); 9% in series [2] (Hep3b2.1-7 model, 20 mg kg^−1 twice-weekly); 6% in series [2] (PC3 model, 20 mg kg^−1 once-weekly); 16% in series [2] (PC3 model, 20 mg kg^−1 twice-weekly). Further, the “body weight nadir (loss)” value in series [2] (LL/2 model) stood at 5%. The “body weight loss at the end of the study” value is on record as 4% in series [2] (20 mg kg^−1 once-weekly), 6% in series [2] (20 mg kg^−1 twice-weekly), 11% in series [2] (30 mg kg^−1 once-weekly) and 10% in series [2] (30 mg kg^−1 twice-weekly). The TGI with MDA-MB-231 tumours (30 mg kg^−1 once-weekly s.c.) turned out to be 69%; with MDA-MB-231 tumours (30 mg kg^−1 twice-weekly s.c.), 59%; in the series on Hep3b2.1-7 tumours (20 mg kg^−1 loading dose then 10 mg kg^−1 twice-weekly), 55%; with Hep3b2.1-7 tumours (20 mg kg^−1 twice-weekly s.c.), 52%; with Hep3b2.1-7 tumours (once-weekly 20 mg kg^−1 followed by 10 mg kg^−1) it was 65%.
